System: B16F0 melanoma tumour
Test: Biodistribution in B16 melanoma bearing mice
Assay type: in vivo, C57BL/6J mice
Settings: for Organ distribution Intestine / Organ distribution Liver / Organ distribution Spleen / Organ distribution Stomach / Organ distribution Thyroid / Organ distribution Tumour: B16F0 tumour, mean ± S.D.
Procedure: Animal experiments were performed in compliance with the NHMRC Australian Code of Practice for the care and use of animals for scientific purposes. Female C57BL/6J black and BALB/c nude albino mice of 5 weeks age were obtained from the Animal Resources Centre, Western Australia. B16F0 murine melanoma cells were originally obtained from European Collection of Cell Cultures (UK) and A375 human amelanotic melanoma cells were originally obtained from American Type Culture Collection (USA). Before transplantation, B16F0 and A375 melanoma cells were maintained as a monolayer in RPMI culture medium supplemented with 10% foetal calf serum and antibiotics and passaged with trypsinisation. Early passages were frozen and stored in liquid nitrogen. Cells were passaged to P=10 and then discarded. Frozen aliquots were grown in a monolayer culture to between 80-95% confluence and for transplantation were trypsinised and washed with Ca^2+ and Mg^2+ free phosphate buffered saline (PBS). For inoculation, B16F0 melanoma cells were resuspended in Ca^2+ and Mg^2+ free PBS at 3 or 5×10^6 viable cells per ml and 0.1 ml was subcutaneously injected at the left flank of 6-7 weeks old C57BL/6J mice. Eleven days later, tumours could be palpated in >98% of inoculated animals. A375 human melanoma cells were resuspended at 1×10^7 viablecells per ml and 0.1 ml was injected subcutaneously at the left flank of 6 weeks old BALB/c nude mice and 25-26 days later tumours could be palpated with ˜60% of inoculated animals developing tumours.
Eleven days (B16F0 melanoma) and 25 days (A375 human melanoma) after tumour transplantation, the [^18F]nicotinamides (0.5-1.5 MBq, 100 μl) and [^123I]nicotinamide (0.37-0.74 MBq, 100 μl) derivatives were injected intravenously via the tail vein into mice (15-18 g). Time points of 1, 3, 6, 24, 48, 72 h after injection were chosen for determining the distribution of each compound in various organs and tissues for the iodine-123 labelled compounds and between 15 min and 6 hours (e.g. 15 min, 30 min, 1 h, 2 h, 4 h or 6 h) were chosen for the ^18F-labelled compounds. At defined times post injection, groups of mice (n=5) were weighed, sacrificed by CO2 administration followed by cervical dislocation and dissected. Selected organs were weighed and their radioactivity measured with a γ-counter. The remaining activity in the carcass was also determined in order to obtain the total activity in the mouse at defined time points. The fraction of injected activity (% ID) in the organ was calculated by comparison with suitable dilutions of the injected dose. Then, the radioactivity concentration in the organ (% ID/g) was found by dividing the % ID for each organ by the weight of the organ.

[1] = B16 melanoma bearing mice, 15 min
[2] = B16 tumour, C57BL/6J mice, 1 h, mean ± SD, n = 5
[3] = B16 tumour, C57BL/6J mice, 6 h, mean ± SD, n = 5
[4] = B16 tumour, C57BL/6J mice, 24 h, mean ± SD, n = 5

CCCCN(C)CCCCNC(=O)c1ccc(F)nc1 [[^18F]MEL4, 6-Fluoro-N-[4-(butyl(methyl)amino)butyl]nicotinamide]
uptake BLOOD [1]: 0.68 % ID/g
uptake BONE [1]: 3.89 % ID/g
uptake BRAIN [1]: 0.84 % ID/g
uptake EYES [1]: 11.27 % ID/g
uptake GIT [1]: 8.23 % ID/g
uptake HEART [1]: 2.49 % ID/g
uptake KIDNEY [1]: 15.88 % ID/g
uptake LIVER [1]: 30.69 % ID/g
uptake LUNGS [1]: 12.06 % ID/g
uptake MUSCLE [1]: 2.83 % ID/g
uptake SKIN [1]: 2.53 % ID/g
uptake SPLEEN [1]: 11.19 % ID/g
uptake STOMACH [1]: 8.52 % ID/g
uptake THYROID [1]: 10.16 % ID/g
uptake TUMOUR [1]: 4.01 % ID/g
uptake BLOOD (B16 melanoma bearing mice, 1 h): 0.32 % ID/g
uptake BONE (B16 melanoma bearing mice, 1 h): 2.03 % ID/g
uptake BRAIN (B16 melanoma bearing mice, 1 h): 0.75 % ID/g
uptake EYES (B16 melanoma bearing mice, 1 h): 12.65 % ID/g
uptake GIT (B16 melanoma bearing mice, 1 h): 5.78 % ID/g
uptake HEART (B16 melanoma bearing mice, 1 h): 0.98 % ID/g
uptake KIDNEY (B16 melanoma bearing mice, 1 h): 4.64 % ID/g
uptake LIVER (B16 melanoma bearing mice, 1 h): 36.76 % ID/g
uptake LUNGS (B16 melanoma bearing mice, 1 h): 4.49 % ID/g
uptake MUSCLE (B16 melanoma bearing mice, 1 h): 1.00 % ID/g
uptake SKIN (B16 melanoma bearing mice, 1 h): 1.61 % ID/g
uptake SPLEEN (B16 melanoma bearing mice, 1 h): 7.38 % ID/g
uptake STOMACH (B16 melanoma bearing mice, 1 h): 3.31 % ID/g
uptake THYROID (B16 melanoma bearing mice, 1 h): 5.37 % ID/g
uptake TUMOUR (B16 melanoma bearing mice, 1 h): 4.79 % ID/g
uptake BLOOD (B16 melanoma bearing mice, 3 h): 0.21 % ID/g
uptake BONE (B16 melanoma bearing mice, 3 h): 1.41 % ID/g
uptake BRAIN (B16 melanoma bearing mice, 3 h): 0.57 % ID/g
uptake EYES (B16 melanoma bearing mice, 3 h): 14.28 % ID/g
uptake GIT (B16 melanoma bearing mice, 3 h): 4.18 % ID/g
uptake HEART (B16 melanoma bearing mice, 3 h): 0.71 % ID/g
uptake KIDNEY (B16 melanoma bearing mice, 3 h): 2.89 % ID/g
uptake LIVER (B16 melanoma bearing mice, 3 h): 32.81 % ID/g
uptake LUNGS (B16 melanoma bearing mice, 3 h): 3.08 % ID/g
uptake MUSCLE (B16 melanoma bearing mice, 3 h): 0.53 % ID/g
uptake SKIN (B16 melanoma bearing mice, 3 h): 1.09 % ID/g
uptake SPLEEN (B16 melanoma bearing mice, 3 h): 5.31 % ID/g
uptake STOMACH (B16 melanoma bearing mice, 3 h): 2.36 % ID/g
uptake THYROID (B16 melanoma bearing mice, 3 h): 2.92 % ID/g
uptake TUMOUR (B16 melanoma bearing mice, 3 h): 5.31 % ID/g
uptake BLOOD (B16 melanoma bearing mice, 6 h): 0.14 % ID/g
uptake BONE (B16 melanoma bearing mice, 6 h): 1.03 % ID/g
uptake BRAIN (B16 melanoma bearing mice, 6 h): 0.37 % ID/g
uptake EYES (B16 melanoma bearing mice, 6 h): 15.75 % ID/g
uptake GIT (B16 melanoma bearing mice, 6 h): 3.08 % ID/g
uptake HEART (B16 melanoma bearing mice, 6 h): 0.52 % ID/g
uptake KIDNEY (B16 melanoma bearing mice, 6 h): 1.80 % ID/g
uptake LIVER (B16 melanoma bearing mice, 6 h): 26.41 % ID/g
uptake LUNGS (B16 melanoma bearing mice, 6 h): 2.23 % ID/g
uptake MUSCLE (B16 melanoma bearing mice, 6 h): 0.36 % ID/g
uptake SKIN (B16 melanoma bearing mice, 6 h): 0.89 % ID/g
uptake SPLEEN (B16 melanoma bearing mice, 6 h): 4.11 % ID/g
uptake STOMACH (B16 melanoma bearing mice, 6 h): 1.79 % ID/g
uptake THYROID (B16 melanoma bearing mice, 6 h): 1.98 % ID/g
uptake TUMOUR (B16 melanoma bearing mice, 6 h): 5.29 % ID/g

O=C(c1cncc(I)c1)N1CCN(Cc2ccccc2)CC1 [[^123I]20, (4-Benzylpiperazin-1-yl)(5-iodopyridin-3-yl)methanone]
Organ distribution Intestine (C57BL/6J mice, 1 h, n = 5): 58 ± 2 % ID/organ
Organ distribution Liver (C57BL/6J mice, 1 h, n = 5): 3.6 ± 0.9 % ID/organ
Organ distribution Spleen (C57BL/6J mice, 1 h, n = 5): 0.05 ± 0.01 % ID/organ
Organ distribution Stomach (C57BL/6J mice, 1 h, n = 5): 1.7 ± 0.6 % ID/organ
Organ distribution Thyroid (C57BL/6J mice, 1 h, n = 5): 0.30 ± 0.08 % ID/organ
Organ distribution Tumour (C57BL/6J mice, 1 h, n = 5): 2.6 ± 1.0 % ID/organ
Organ distribution Intestine (C57BL/6J mice, 6 h, n = 5): 30 ± 3 % ID/organ
Organ distribution Liver (C57BL/6J mice, 6 h, n = 5): 1.9 ± 0.4 % ID/organ
Organ distribution Spleen (C57BL/6J mice, 6 h, n = 5): 0.04 ± 0.02 % ID/organ
Organ distribution Stomach (C57BL/6J mice, 6 h, n = 5): 4 ± 3 % ID/organ
Organ distribution Thyroid (C57BL/6J mice, 6 h, n = 5): 1.1 ± 0.4 % ID/organ
Organ distribution Tumour (C57BL/6J mice, 6 h, n = 5): 1.7 ± 0.5 % ID/organ
Organ distribution Intestine (C57BL/6J mice, 24 h, n = 5): 0.4 ± 0.1 % ID/organ
Organ distribution Liver (C57BL/6J mice, 24 h, n = 5): 0.13 ± 0.04 % ID/organ
Organ distribution Spleen (C57BL/6J mice, 24 h, n = 5): 0.00 ± 0.00 % ID/organ
Organ distribution Stomach (C57BL/6J mice, 24 h, n = 5): 0.07 ± 0.02 % ID/organ
Organ distribution Thyroid (C57BL/6J mice, 24 h, n = 5): 1.4 ± 0.6 % ID/organ
Organ distribution Tumour (C57BL/6J mice, 24 h, n = 5): 0.36 ± 0.07 % ID/organ
tumour standardized uptake value (SUVt) (B16 tumour, C57BL/6J mice, 1 h): 1.5 ± 0.4
Uptake Lung [2]: 0.90 ± 0.06 % ID/g
uptake BLOOD [2]: 0.89 ± 0.07 % ID/g
uptake BRAIN [2]: 0.20 ± 0.02 % ID/g
uptake HEART [2]: 0.49 ± 0.03 % ID/g
uptake KIDNEY [2]: 4.2 ± 0.6 % ID/g
uptake LIVER [2]: 3.6 ± 0.9 % ID/g
uptake TUMOUR [2]: 6.0 ± 1.6 % ID/g
tumour standardized uptake value (SUVt) (B16 tumour, C57BL/6J mice, 6 h): 1.7 ± 0.5
Uptake Lung [3]: 0.46 ± 0.13 % ID/g
uptake BLOOD [3]: 0.60 ± 0.17 % ID/g
uptake BRAIN [3]: 0.05 ± 0.01 % ID/g
uptake HEART [3]: 0.24 ± 0.08 % ID/g
uptake KIDNEY [3]: 2.4 ± 0.4 % ID/g
uptake LIVER [3]: 2.2 ± 0.6 % ID/g
uptake TUMOUR [3]: 3.9 ± 0.9 % ID/g
tumour standardized uptake value (SUVt) (B16 tumour, C57BL/6J mice, 24 h): 9 ± 2
Uptake Lung [4]: 0.03 ± 0.01 % ID/g
uptake BLOOD [4]: 0.04 ± 0.01 % ID/g
uptake BRAIN [4]: 0.001 % ID/g
uptake HEART [4]: 0.02 ± 0.01 % ID/g
uptake KIDNEY [4]: 0.08 ± 0.01 % ID/g
uptake LIVER [4]: 0.12 ± 0.02 % ID/g
uptake TUMOUR [4]: 1.0 ± 0.2 % ID/g
